Values quoted from earlier work, collected in patent US20160375041A1, “INHIBITION OF ISOPRENOID BIOSYNTHETIC PATHWAYS TO TREAT AUTOIMMUNE DISORDERS” (priority 2013, published 2016).

System: Vγ9Vδ2 TCR
Conditions: microbial derived HMBPP; fold more potent as stimulatory pyrophosphate

Structure (SMILES): C/C(=C\COP(=O)(O)OP(=O)(O)O)CO [HMBPP, (E)-4-Hydroxy-3-methyl-but-2-enyl pyrophosphate]
- potency relative to any other known, naturally-occurring pyrophosphate: over 10,000
